Experimental findings from US9216983B2, “Dihydroorotate dehydrogenase inhibitors with selective anti-malarial activity” (BOARD OF REGENTS, UNIVERSITY OF TEXAS SYSTEM, priority 2007, dated 2015) are described below.

One data set deals with P. falciparum. Briefly: Inhibition of cell proliferation, 3H-hypoxanthine uptake in P. falciparum-infected erythrocytes. The data set is classed as cell-based. The source says: [formula] II. In Vitro Evaluation of Compound Efficacy on the Human Malaria Parasite, P. falciparum.
The target in another data set is T1, PfDHODH (Plasmodium falciparum, UniProt Q08210).
T1 sequence (Q08210 24-569): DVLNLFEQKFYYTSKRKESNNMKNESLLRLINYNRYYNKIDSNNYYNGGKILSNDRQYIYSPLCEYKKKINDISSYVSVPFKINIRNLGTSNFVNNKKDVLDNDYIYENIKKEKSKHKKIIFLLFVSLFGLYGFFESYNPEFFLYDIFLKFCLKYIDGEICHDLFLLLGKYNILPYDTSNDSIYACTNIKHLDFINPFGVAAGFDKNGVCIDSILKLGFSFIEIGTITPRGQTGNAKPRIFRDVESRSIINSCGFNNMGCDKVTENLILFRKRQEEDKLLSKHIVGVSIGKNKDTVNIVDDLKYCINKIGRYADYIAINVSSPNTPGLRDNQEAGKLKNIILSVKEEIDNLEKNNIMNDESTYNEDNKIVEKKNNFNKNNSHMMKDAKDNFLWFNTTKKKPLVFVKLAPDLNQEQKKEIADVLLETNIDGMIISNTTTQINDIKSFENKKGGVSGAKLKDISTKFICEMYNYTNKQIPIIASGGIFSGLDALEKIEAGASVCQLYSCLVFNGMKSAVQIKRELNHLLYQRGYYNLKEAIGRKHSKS
Briefly: biochemical. Here is the method: (§1) Briefly, the assay solution contained 100 mM HEPES, pH 8.0, 150 mM NaCl, 10% glycerol, 0.1% Triton X-100, 20 micro molar COQD (coenzyme QD), 200 micro molar L-dihydroorotate, and 120 micro molar DCIP. Reactions are initiated by addition of enzyme to a final concentration in the range of about […] to about 50 nM while maintaining the temperature of a circulating water bath at 25° C.
(§2) Assay solutions were prepared as discussed above, except that DCIP is not present and the solution is depleted of oxygen by the inclusion of an oxidase/reductase system, such as, 0.1 mg/ml of glucose oxidase, 0.02 mg/ml catalase and 50 mM glucose. The data obtained is fitted to equation 1, to determine the IC50 values of the representative compounds.

A further data set concerns the target hDHODH (Homo sapiens, UniProt Q02127). In words: DHODH enzyme inhibition assay, hDHODH. The data set is classed as biochemical. The conditions noted are these: Table 1; read-out: IC50 hDHODH. On the procedure:
as §1, §2

A further data set has as its target PbDHODH (Plasmodium berghei, UniProt A0A509AEH5). In words: DHODH enzyme inhibition assay, PbDHODH. The data set is classed as biochemical, P. berghei. The conditions noted are these: Table 3, average of the determinations; read-out: PbDHODH IC50 Ave (converted). Here is the method: as §1, §2
For the next data set, the system named is P. berghei. In words: Standard P. berghei mouse model of infection. It counts as in vivo. The conditions noted are these: mice, oral. On the procedure:
(A) The standard P. berghei mouse model for infection is utilized to evaluate the efficacy of candidate compounds, according to the invention, against parasites in vivo. See review of Fidock, et al. (2004) Nature Rev. Drug Discovery 3, 509-20. Compounds are dosed either orally or IP, with the exact regimens (e.g. frequency of dosing, drug concentrations at dosing) determined based on the pharmocokinetic profiles of the individual analogs. […] Inhibition of parasite growth is determined microscopically by staining a thin smear of blood obtained from the test animal using a Wright-Giemsa stain.

A short description of data set [1]: Pharmacokinetic analysis after single oral dose in mice. It counts as in vivo. The conditions noted are these: for peak plasma concentration: FIG. 1A. Here is the method: Pharmacokinetics of the inventive compounds was studied individually in non-fasted male Swiss outbred mice weighing 23-33 g. Mice had access to food and water ad libitum throughout the pre- and post-dose sampling period. Compounds were administered orally by gavage (0.1 mL dose volume per mouse) in a suspension of aqueous vehicle (0.5% w/v sodium caboxymethylcellulose, 0.5% v/v benzyl alcohol and 0.4% v/v Tween 80). A single blood sample was collected from each mouse via cardiac puncture at each indicated time point and transferred to heparinised tubes. Blood samples were centrifuged immediately, supernatant plasma was removed and stored at −20° C. until analysis (within 1-2 weeks). Plasma samples were assayed by LC-MS following protein precipitation with acetonitrile and the concentration of drug in plasma was determined. Pharmacokinetic parameters were calculated on the basis of plasma concentration-time profiles that used the mean plasma concentration at each sample time.

Setting [2] is: Plasmodium falciparum, Erythrocyte, Table 1, read-out: EC50 P. falciparum.
The mark [3] stands for this setting: Table 1, read-out: IC50 PfDHODH.
Setting [4] is: for a 2.5-fold increase in dose, 20 to 50 mg/kg.

Molecules are shown by their SMILES. Like-named read-outs stand apart in the source and are kept apart here.

Chain of hDHODH (Q02127 whole entry): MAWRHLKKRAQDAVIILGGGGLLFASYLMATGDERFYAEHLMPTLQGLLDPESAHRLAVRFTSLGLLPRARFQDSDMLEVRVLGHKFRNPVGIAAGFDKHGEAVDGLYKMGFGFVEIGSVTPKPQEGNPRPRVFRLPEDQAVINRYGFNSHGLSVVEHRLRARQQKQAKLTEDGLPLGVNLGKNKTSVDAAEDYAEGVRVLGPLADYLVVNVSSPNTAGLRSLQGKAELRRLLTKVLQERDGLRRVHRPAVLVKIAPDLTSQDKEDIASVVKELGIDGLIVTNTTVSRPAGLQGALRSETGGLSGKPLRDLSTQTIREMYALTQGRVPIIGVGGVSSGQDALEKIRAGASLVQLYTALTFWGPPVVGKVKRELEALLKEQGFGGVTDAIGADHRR
Chain of PbDHODH (A0A509AEH5 entry or part of it): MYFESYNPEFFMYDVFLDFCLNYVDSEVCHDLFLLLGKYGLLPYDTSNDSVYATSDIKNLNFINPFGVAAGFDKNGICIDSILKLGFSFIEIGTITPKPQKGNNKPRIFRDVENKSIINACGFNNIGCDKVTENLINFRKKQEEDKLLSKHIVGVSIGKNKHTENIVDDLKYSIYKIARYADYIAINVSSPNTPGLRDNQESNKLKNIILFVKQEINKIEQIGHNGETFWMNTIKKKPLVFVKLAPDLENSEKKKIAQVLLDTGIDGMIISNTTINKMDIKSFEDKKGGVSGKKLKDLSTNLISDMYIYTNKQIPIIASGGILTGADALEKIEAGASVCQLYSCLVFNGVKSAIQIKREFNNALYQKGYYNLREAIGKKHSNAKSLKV

With `Cc1cc(Nc2ccc(F)c(C)c2)n2ncnc2n1`, the melting point came out at 231 °C.
Regarding `Cc1cc(Nc2ccc3ccccc3c2)n2nc(C)nc2n1`, in the data set with P. falciparum (setting [2]), the EC50 is less than 150 nM. The figures for the IC50 at PfDHODH (setting [3]) and at hDHODH were 120 ± 20 nM and more than 200000 nM, respectively.
As for `Cc1cc(Nc2ccc3cc4ccccc4cc3c2)n2nc(C)nc2n1`, the EC50 in the data set on P. falciparum (setting [2]) came to 230 ± 1.4 nM. The IC50 is 100 nM at PfDHODH (setting [3]) and more than 200000 nM at hDHODH.
Regarding `Cc1cc(Nc2ccc3ccccc3c2)n2nccc2n1`, the EC50 was 1000 nM with P. falciparum (Plasmodium falciparum, 3D7, Erythrocyte, Table 3, 3D7, average of the determinations, read-out: P. falciparum 3D7 EC50 Ave); 990 ± 6 nM with P. falciparum (Plasmodium falciparum, 3D7, Erythrocyte, Table 3, 3D7, single determinations, read-out: P. falciparum 3D7 EC50 (converted)); 1100 nM with P. falciparum (Table 3, 3D7, single determinations, read-out: P. falciparum 3D7 EC50 (converted)). The IC50 on PfDHODH (Table 3, single determinations, read-out: PfDHODH IC50) is 400 ± 90 nM; on PbDHODH, 3300 nM.
Turning to `CC1=NC2=NC=NC2C(Nc2ccc3ccccc3c2)=N1` (centres unmarked) [2-methyl-N-(naphthalen-2-yl)-9H-purin-6-amine], the EC50 in the data set on P. falciparum (Plasmodium falciparum, Erythrocyte, read-out: EC50 P. falciparum) came to 1600 nM. Further, the IC50 on PfDHODH (IC50 PfDHODH, Table 1) is 440 ± 200 nM; at hDHODH, more than 200000 nM.
`Cc1cc(Nc2ccc(OC(F)F)cc2)n2ncnc2n1` [Compound 20, (4-Difluoromethoxy-phenyl)-(5-methyl-[1,2,4]triazolo[1,5-a]pyrimidin-7-yl)-amine] showed a melting point of 200 °C.
Take `Cc1cc(Nc2ccc(C(F)(F)F)cc2)n2ncnc2n1` [drawing 22]: the parasite growth result in the data set with P. berghei (50 mg/kg, blood smear Wright-Giemsa stain, FIG. 1B) is “suppresses parasite growth”. The “parasite growth, twice a day rather than a single dose” value with P. berghei (twice a day versus single dose) is given as “Greater suppression of parasite growth”. In addition, the EC50 in the data set on P. falciparum (Plasmodium falciparum, 3D7, Erythrocyte, Table 2, 3D7, read-out: P. falciparum 3D7 EC50 (converted)) was 350 ± 3 nM. Also, in data set [1] (setting [4]), the AUC0-last increase is on record as 4.4 fold and the Cmax increase is 3.5 fold. In addition, in data set [1] (male, Swiss outbred, mouse, plasma, mice, oral, 50 mg/kg, read-out: apparent half-life), the half-life came out at 2.95 h. Further, in data set [1] (mice, oral, 20 mg/kg), the AUC0-last worked out at 2690 µM·min, the peak level (Cmax) was 7.9 ± 2.5 µM, the apparent half-life is 1.8 h and the peak plasma concentration is 11 micro molar. For the same compound, the “adverse reactions following oral administration” value in data set [1] (mice, oral, 20 mg/kg and 50 mg/kg) is “No adverse reactions were observed”. In data set [1] (mice, oral, 50 mg/kg), the AUC0-last amounted to 11757 µM·min, the peak level (Cmax) was 27.6 ± 5 µM, the “time with plasma concentration above 1 μM” value came to 16 h and the peak plasma concentration came to 31 micro molar.
Take `Cc1cc(Nc2cccc(Cl)c2)n2ncnc2n1` [drawing 23]: the melting point was found to be 227 °C.
